The text below walks through data of patent US20200138827A1, “SMALL MOLECULE MODULATORS OF HUMAN STING” (Curadev Pharma Limited, priority 2017, published 2020).

Counter-ions that a name gives are not always drawn. Where only a bound is given, the exact number is not on record here.

The target of the assay is T1, WT/R232 STING protein (Homo sapiens, UniProt Q86WV6, H232R).
T1 construct: host or cells: HEK293T
T1 sequence (Q86WV6 whole entry H232R): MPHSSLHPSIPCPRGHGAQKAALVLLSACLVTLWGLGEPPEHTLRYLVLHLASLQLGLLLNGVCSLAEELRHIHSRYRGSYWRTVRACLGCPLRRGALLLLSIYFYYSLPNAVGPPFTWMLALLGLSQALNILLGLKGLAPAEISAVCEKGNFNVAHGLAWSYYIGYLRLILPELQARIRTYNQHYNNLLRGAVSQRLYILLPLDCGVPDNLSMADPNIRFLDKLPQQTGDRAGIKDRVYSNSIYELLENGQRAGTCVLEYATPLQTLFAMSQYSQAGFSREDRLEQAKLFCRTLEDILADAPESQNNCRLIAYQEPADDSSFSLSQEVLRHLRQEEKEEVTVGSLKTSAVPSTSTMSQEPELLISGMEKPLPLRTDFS
As to the kind of experiment: Luciferase reporter assay in HEK293T-hSTING-Luciferase cells, WT/R232. The class given is cell-based. The settings on record: 20 hr stimulation, read-out: R232 Activity (EC50 range). A digest of the protocol: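 Clonal HEK293T cells stably expressing human STING R232 plus an ISRE/ISG54-driven luciferase reporter, 5×10^5 per well, stimulated with compounds for 20 h. Secreted luciferase in supernatant measured by luminescence; […].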
A general note: Reporter assays use an easily measured gene product as a stand-in for the process of interest.
Regarding `CC1(CO)Sc2ncc(C(=O)NCc3cc4ccccc4o3)cc2N(Cc2cc(F)cc(F)c2)C1=O` (centres unmarked) [Example 210, N-(benzofuran-2-ylmethyl)-1-(3,5-difluorobenzyl)-3-(hydroxymethyl)-3-methyl-2-oxo-2,3-dihydro-1H-pyrido[2,3-b] [1,4] thiazine-7-carboxamide], the EC50 (commonly the concentration at which the effect is half-maximal) was > 10 µM.

For the molecule `CC1(CO)Sc2ncc(C(=O)NCc3c(F)cc(F)cc3F)cc2N(Cc2cc(F)cc(F)c2)C1=O` (centres unmarked) [Example 211, 1-(3,5-difluorobenzyl)-3-(hydroxymethyl)-3-methyl-2-oxo-N-(2,4,6-trifluorobenzyl)-2,3-dihydro-1H-pyrido [2,3-b] [1,4]thiazine-7-carboxamide], the EC50 is > 10 µM. Next, `Cc1noc(CNC(=O)c2cnc3c(c2)N(Cc2cc(F)cc(F)c2)C(=O)C(C)S3)n1` (centres unmarked) [Example 212, 1-(3,5-difluorobenzyl)-3-methyl-N-((3-methyl-1,2,4-oxadiazol-5-yl)methyl)-2-oxo-2,3-dihydro-1H-pyrido[2,3-b] [1,4] thiazine-7-carboxamide]: > 10 µM; `Cc1cnc(CNC(=O)c2cnc3c(c2)N(Cc2cc(F)cc(F)c2)C(=O)C(C)S3)o1` (centres unmarked) [Example 213, 1-(3,5-difluorobenzyl)-3-methyl-N-((5-methyloxazol-2-yl)methyl)-2-oxo-2,3-dihydro-1H-pyrido[2,3-b][1,4]thiazine-7-carboxamide]: > 10 µM. Next, `CC1Sc2ncc(C(=O)NCc3cccnn3)cc2N(Cc2cc(F)cc(F)c2)C1=O` (centres unmarked) [Example 214, 1-(3,5-difluorobenzyl)-3-methyl-2-oxo-N-(pyridazin-3-ylmethyl)-2,3-dihydro-1H-pyrido [2,3-b][1,4] thiazine-7-carboxamide]: > 10 µM; `CC1Sc2ncc(C(=O)NCc3ccn(C)n3)cc2N(Cc2cc(F)cc(F)c2)C1=O` (centres unmarked) [Example 215, 1-(3,5-difluorobenzyl)-3-methyl-N-((1-methyl-1H-pyrazol-3-yl)methyl)-2-oxo-2,3-dihydro-1H-pyrido[2,3-b][1,4]thiazine-7-carboxamide]: > 10 µM; `CC1Sc2ncc(C(=O)NCc3cnn(C)c3)cc2N(Cc2cc(F)cc(F)c2)C1=O` (centres unmarked) [Example 216, 1-(3,5-difluorobenzyl)-3-methyl-N-((1-methyl-1H-pyrazol-4-yl)methyl)-2-oxo-2,3-dihydro-1H-pyrido[2,3-b][1,4] thiazine-7-carboxamide]: > 10 µM. Next, `CC1Sc2ncc(C(=O)NCc3cnccn3)cc2N(Cc2cc(F)cc(F)c2)C1=O` (centres unmarked) [Example 217, 1-(3,5-difluorobenzyl)-3-methyl oxo-N-(pyrazin-2-ylmethyl)-2,3 dihydro-1H-pyrido[2,3-b][1,4]thiazine-7-carboxamide]: > 10 µM; `N#Cc1cc(C(=O)NCc2ccco2)cc2c1SCC(=O)N2Cc1ccccc1` [Example 219, 4-Benzyl-8-cyano-N-(furan-2-ylmethyl)-3-oxo-3,4-dihydro-2H-benzo[b-1,4]thiazine-6-carboxamide]: > 10 µM. Consider `N#Cc1cc(C(=O)NCc2ccco2)cc2c1SCC(=O)N2Cc1cc(F)cc(F)c1` [Example 220, 8-cyano-4-(3,5-difluorobenzyl)-N-(furan-2-ylmethyl)-3-oxo-3,4-dihydro-2H-benzo[b-1,4]thiazine-6-carboxamide], for which the EC50 is > 10 µM.

Regarding `O=C(NCc1ccco1)c1cc(Br)c2c(c1)N(Cc1ccccc1F)C(=O)CS2` [Example 221, 8-bromo-4-(2-fluorobenzyl)-N-(furan-2-ylmethyl)-3-oxo-3,4-dihydro-2H-benzo[b-1,4]thiazine-6-carboxamide], the EC50 was > 10 µM. With `O=C(NCc1c(F)cc(F)cc1F)c1cc(CCO)c2c(c1)N(Cc1ccc(F)cc1)C(=O)CS2` [Example 222, 4-(4-fluorobenzyl)-8-(2-hydroxyethyl)-3-oxo-N-(2,4,6-trifluorobenzyl)-3,4-dihydro-2H-benzo[b][1,4] thiazine-6-carboxamide] the figure was > 10 µM; with `CC(O)c1cc(C(=O)NCc2c(F)cc(F)cc2F)cc2c1SCC(=O)N2Cc1ccc(F)cc1` (centres unmarked) [Example 223, 4-(4-fluorobenzyl)-8-(1-hydroxyethyl)-3-oxo-N-(2,4,6-trifluorobenzyl)-3,4-dihydro-2H-benzo[b][1,4] thiazine-6-carboxamide], > 10 µM. Consider `NCc1cc(C(=O)NCc2c(F)cc(F)cc2F)cc2c1SCC(=O)N2Cc1ccc(F)cc1` [Example 224, 8-(aminomethyl)-4-(4-fluorobenzyl)-3-oxo-N-(2,4,6-trifluorobenzyl)-3,4-dihydro-2H-benzo[b][1,4] thiazine-6-carboxamide hydrochloride], for which the EC50 was > 10 µM. With `NC(=O)c1cc(C(=O)NCc2c(F)cc(F)cc2F)cc2c1SCC(=O)N2Cc1ccc(F)cc1` [Example 225, 4-(4-fluorobenzyl)-3-oxo-N6-(2,4,6-trifluorobenzyl)-3,4-dihydro-2H-benzo[b][1,4] thiazine-6,8-dicarboxamide] the figure was > 10 µM; with `Cc1cc(C(=O)NCc2ccco2)cc2c1SCC(=O)N2Cc1ccccc1F` [Example 226, 4-(2-Fluorobenzyl)-N-(furan-2-ylmethyl)-8-methyl-3-oxo-3,4-dihydro-2H-benzo[b-1,4]thiazine-6-carboxamide], > 10 µM.

Take `O=C(NCc1ccco1)c1cc(C2CC2)c2c(c1)N(Cc1ccccc1F)C(=O)CS2` [Example 227]: the EC50 was > 10 µM. With `O=C(NCc1ccco1)c1cc2c(cc1Br)SCC(=O)N2Cc1ccccc1F` [Example 228, 7-bromo-4-(2-fluorobenzyl)-N-(furan-2-ylmethyl)-3-oxo-3,4-dihydro-2H-benzo[b][1,4]thiazine-6-carboxamide] the figure was > 10 µM. With `O=C(NCc1ccco1)c1cc2c(cc1C1CC1)SCC(=O)N2Cc1ccccc1F` [Example 229, 7-cyclopropyl-4-(2-fluorobenzyl)-N-(furan-2-ylmethyl)-3-oxo-3,4-dihydro-2H-benzo[b-1,4]thiazine-6-carboxamide] the figure was > 10 µM; with `Cc1cc2c(cc1C(=O)NCc1ccco1)N(Cc1ccccc1)C(=O)CS2` [Example 230, 4-Benzyl-N-(furan-2-ylmethyl)-7-methyl-3-oxo-3,4-dihydro-2H-benzo[b-1,4]thiazine-6-carboxamide], > 10 µM. With `O=C(NCc1ccco1)c1ccc2c(c1)N(Cc1c(F)cccc1Cl)C(=O)CO2` [Example 231, 4-(2-Chloro-6-fluorobenzyl)-N-(furan-2-ylmethyl)-3-oxo-3,4-dihydro-2H-benzo[b-1,4]oxazine-6-carboxamide] the figure was > 10 µM; with `O=C(NCc1c(F)cc(F)cc1F)c1cnc2c(c1)N(Cc1cc(F)cc(F)c1)C(=O)CO2` [Example 236, 1-(3,5-difluorobenzyl)-2-oxo-N-(2,4,6-trifluorobenzyl)-2,3-dihydro-1H-pyrido[2,3-b-1,4]oxazine-7-carboxamide], > 10 µM. In the case of `C[C@@H]1Oc2ncc(C(=O)NCc3c(F)cc(F)cc3F)cc2N(Cc2cc(F)cc(F)c2)C1=O` [Example 237, (S)-1-(3,5-difluorobenzyl)-3-methyl-2-oxo-N-(2,4,6-trifluorobenzyl)-2,3-dihydro-1H-pyrido[2,3-b-1,4]oxazine-7-carboxamide], the EC50 lay within 1 to 10 µM. Consider `C[C@H]1Oc2ncc(C(=O)NCc3c(F)cc(F)cc3F)cc2N(Cc2cc(F)cc(F)c2)C1=O` [Example 238, (R)-1-(3,5-difluorobenzyl)-3-methyl-2-oxo-N-(2,4,6-trifluorobenzyl)-2,3-dihydro-1H-pyrido[2,3-b-1,4]oxazine-7-carboxamide], for which the EC50 lay in the range of 1 to 10 µM. In the case of `O=C(NCc1c(F)cc(F)cc1F)c1cnc2c(c1)N(Cc1c(F)cccc1Cl)C(=O)CO2` [Example 239, 1-(2-chloro-6-fluorobenzyl)-2-oxo-N-(2,4,6-trifluorobenzyl)-2,3-dihydro-1H-pyrido[2,3-b-1,4]oxazine-7-carboxamide], the EC50 was > 10 µM.

As for `CC1Oc2ncc(C(=O)NCc3c(F)cc(F)cc3F)cc2N(Cc2cc(F)cc(F)c2)C1=O` (centres unmarked) [Example 240, 1-(3,5-difluorobenzyl)-3-methyl-2-oxo-N-(2,4,6-trifluorobenzyl)-2,3-dihydro-1H-pyrido[2,3-b-1,4]oxazine-7-carboxamide], the EC50 was 1 to 10 µM. With `C[C@@H]1Oc2ncc(C(=O)NCc3cc4ccccc4o3)cc2N(Cc2cc(F)cc(F)c2)C1=O` [Example 241, (S)-N-(benzofuran-2-ylmethyl)-1-(3,5-difluorobenzyl)-3-methyl-2-oxo-2,3-dihydro-1H-pyrido[2,3-b][1,4]oxazine-7-carboxamide] the figure was 1 to 10 µM; with `CC1Oc2ncc(C(=O)NCc3cccc(C(F)(F)F)c3)cc2N(Cc2c(F)cccc2Cl)C1=O` (centres unmarked) [Example 244, 1-(2-chloro-6-fluorobenzyl)-3-methyl-2-oxo-N-(3-(trifluoromethyl)benzyl)-2,3-dihydro-1H-pyrido[2,3-b][1,4]oxazine-7-carboxamide], > 10 µM.

`O=C(NCc1ccco1)c1ccc2c(c1)N(Cc1c(F)cccc1Cl)C(=O)C[S+]2[O-]` (centres unmarked) [Example 245, 4-(2-chloro-6-fluorobenzyl)-N-(furan-2-ylmethyl)-3-oxo-3,4-dihydro-2H-benzo[b][1,4]thiazine-6-carboxamide 1-oxide]: the EC50 is > 10 µM.

Take `O=C(NCc1ccco1)c1ccc2c(c1)N(Cc1ccccc1)CCS2` [Example 246, 4-Benzyl-N-(furan-2-ylmethyl)-3,4-dihydro-2H-benzo[b-1,4]thiazine-6-carboxamide]: the EC50 is > 10 µM. For `O=C(NCc1ccco1)c1ccc2c(c1)N(Cc1ccccc1F)CCS2` [Example 247, 4-(2-fluorobenzyl)-N-(furan-2-ylmethyl)-3,4-dihydro-2H-benzo[b-1,4]thiazine-6-carboxamide], the EC50 was > 10 µM.

Take `O=C(NCc1ccco1)c1ccc2c(c1)N(CC(O)c1ccccc1)CCS2` (centres unmarked) [Example 248, N-(furan-2-ylmethyl)-4-(2-hydroxy-2-phenylethyl)-3,4-dihydro-2H-benzo[b-1,4]thiazine-6-carboxamide]: the EC50 was > 10 µM.
